Here are results for 7 compounds from US4254110A, “Pentofuranosyl anthracyclines, intermediates in and method for their preparation and compositions and use thereof” (Farmitalia Carlo Erba S.p.A., priority 1979, dated 1981).

The subject of data set [1] is HeLa cells. The data set can be described thus: Cytotoxic activity against HeLa cells in vitro (effect on HeLa cells viability). Type of data set: cell-based. As to conditions: Homo sapiens, read-out: ID50 (effect on HeLa cells viability in vitro). The procedure:
The cytotoxic activity of several of the new compounds according to the invention were tested against HeLa cells in vitro (time of exposure to the compounds=24 hours) in comparison with daunorubicin and doxorubicin.

In data set [2] the test system is P-388 leukemia. Kind of data set: Antitumor activity against P-388 leukemia in mice. In kind it is in vivo. As to conditions: for Toxic Deaths: macroscopic autoptic findings; for antitumor activity compared with daunorubicin and doxorubicin: at the tolerated doses (100~200 mg/Kg). The procedure:
The antitumor activity of the same compounds was tested against P-388 leukemia in mice.
^(a) Mice were treated i.p. on day 1 after tumor cell inoculation.
^(b) Evaluated on the basis of macroscopic autoptic findings.
^(c) Injected as a water solution.
^(d) Injection as a 5% aqueous ethanol suspension.
^(e) Injected as a 1:9 Tween 80 : water suspension.

Setting [3] is: dose 50 mg/Kg i.p. on day 1, III-a as 5% aqueous ethanol suspension, others as 1:9 Tween 80:water suspension.
Setting [4] is: dose 100 mg/Kg i.p. on day 1, III-a as 5% aqueous ethanol suspension, others as 1:9 Tween 80:water suspension.
[5] abbreviates: dose 200 mg/Kg i.p. on day 1, III-a as 5% aqueous ethanol suspension, others as 1:9 Tween 80:water suspension.
Where [6] appears, read: dose 4.4 mg/Kg i.p. on day 1, water solution.
[7] abbreviates: dose 4.4 mg/Kg i.p. on day 1 after tumor cell inoculation, water solution.
The mark [8] stands for this setting: dose 6.6 mg/Kg i.p. on day 1, water solution.
Where [9] appears, read: dose 6.6 mg/Kg i.p. on day 1 after tumor cell inoculation, water solution.

Structures are written as SMILES. Values after ≈ are worked out from the molar mass of the structure shown. Counter-ions that a name gives are not always drawn. Like-named read-outs stand apart in the source and are kept apart here.

In the case of `COc1cccc2c1C(=O)c1c(O)c3c(c(O)c1C2=O)C[C@@](O)(C(C)=O)C[C@@H]3O[C@H]1CC(C=O)[C@H](C)O1` (single isomer, unassigned) [Compound III-b], the IC50 in data set [1] (HeLa cells, 24 hours exposure) is 1.75 ng/mL (≈ 0.00343 µM). Besides, the T/C % in data set [2] (setting [3]) is reported as 110%; in data set [2] (setting [4]), 110%; in data set [2] (setting [5]) it was 125%. In addition, the “Toxic Deaths” value in data set [2] (setting [3]) was 0/10; in data set [2] (setting [4]), 0/10; in data set [2] (setting [5]) it was 0/9.

Turning to `COc1cccc2c1C(=O)c1c(O)c3c(c(O)c1C2=O)C[C@@](O)(C(=O)CO)C[C@@H]3O[C@H]1CC(C=O)[C@H](C)O1` (stereo partly drawn) [Compound III (R3 = OH), 7-O-(2,3,5-trideoxy-3-C-formyl-α-pentofuranosyl)-adriamycinone], the IC50 in data set [1] (HeLa cells, 24 hours exposure) came to 140 ng/mL (≈ 0.266 µM). Also, the T/C % in data set [2] (setting [3]) is recorded as 163%; in data set [2] (setting [4]) it was 190%; in data set [2] (setting [5]), 231%. Also, the “Toxic Deaths” value in data set [2] (setting [3]) is 0/9; in data set [2] (setting [4]), 0/9; in data set [2] (setting [5]), 1/7.

As for `COc1cccc2c1C(=O)c1c(O)c3c(c(O)c1C2=O)C[C@@](O)(C(C)=O)C[C@@H]3O[C@H]1CC(C=O)[C@H](C)O1` (stereo partly drawn) [Compound III-a, 7-O-(2,3,5-trideoxy-3-C-formyl-α-L-threopentofuranosyl)-daunomycinone], in data set [1] (HeLa cells, 24 hours exposure), the IC50 came out at 320 ng/mL (≈ 0.627 µM). In data set [2], the “antitumor activity compared with daunorubicin and doxorubicin” value is “higher than or comparable to those of both daunorubicin and doxorubicin”. In addition, the figures for the T/C % in data set [2] (setting [3]), in data set [2] (setting [4]) and in data set [2] (setting [5]) were 168%, 163% and 190%, respectively. Besides, the “Toxic Deaths” value in data set [2] (setting [3]) is recorded as 0/8; in data set [2] (setting [4]), 0/5; in data set [2] (setting [5]) it was 2/5.

As to `COc1cccc2c1C(=O)c1c(O)c3c(c(O)c1C2=O)C[C@@](O)(C(C)=O)C[C@@H]3O[C@H]1CC(CO)[C@H](C)O1` (stereo partly drawn) [Compound IV (R3 = H), 7-O-(2,3,5-trideoxy-3-C-hydroxymethyl-α-L-threopentofuranosyl)-daunomycinone], the IC50 in data set [1] (HeLa cells, 24 hours exposure) worked out at 1.6 ng/mL (≈ 0.00312 µM). Besides, the “antitumor activity compared with daunorubicin and doxorubicin” value in data set [2] is “higher than or comparable to those of both daunorubicin and doxorubicin”. Also, the results for the T/C % in data set [2] (setting [3]), in data set [2] (setting [4]) and in data set [2] (setting [5]) were 130%, 160% and 220%, respectively. Besides, the figures for the “Toxic Deaths” value in data set [2] (setting [3]), in data set [2] (setting [4]) and in data set [2] (setting [5]) were 0/7, 0/6 and 0/5, respectively.

As for `COc1cccc2c1C(=O)c1c(O)c3c(c(O)c1C2=O)C[C@@](O)(C(C)=O)C[C@@H]3O[C@H]1C[C@H](N)[C@H](O)[C@H](C)O1` [Daunorubicin . HCl, daunorubicin, reference compound], in data set [1] (HeLa, 24 h), the IC50 came to 7.4 ng/mL. Moreover, the “Toxic Deaths” value in data set [2] (dose 2.9 mg/Kg i.p. on day 1, water solution) was 0/37; in data set [2] (setting [6]), 0/38; in data set [2] (setting [8]), 19/38. In addition, the T/C % is listed as 169% in data set [2] (dose 2.9 mg/Kg i.p. on day 1 after tumor cell inoculation, water solution); 167% in data set [2] (setting [7]); 157% in data set [2] (setting [9]).

As to `COc1cccc2c1C(=O)c1c(O)c3c(c(O)c1C2=O)C[C@@](O)(C(=O)CO)C[C@@H]3O[C@H]1C[C@H](N)[C@H](O)[C@H](C)O1` [Doxorubicin . HCl, doxorubicin, reference compound], the IC50 in data set [1] (HeLa, 24 h) was 10 ng/mL. Also, the “Toxic Deaths” value is 0/17 in data set [2] (setting [6]); 0/17 in data set [2] (setting [8]); 4/18 in data set [2] (dose 10.0 mg/Kg i.p. on day 1, water solution). Further, the T/C % in data set [2] (setting [7]) worked out at 195%; in data set [2] (setting [9]), 206%; in data set [2] (dose 10.0 mg/Kg i.p. on day 1 after tumor cell inoculation, water solution), 244%.

In the case of `COc1cccc2c1C(=O)c1c(O)c3c(c(O)c1C2=O)C[C@@](O)(C(=O)CO)C[C@@H]3O[C@H]1CC(C=O)[C@H](C)O1` (stereo partly drawn) [III (R3 =OH)], the “antitumor activity compared with daunorubicin and doxorubicin” value in data set [2] is “higher than or comparable to those of both daunorubicin and doxorubicin”.
